From patent US8134010B2, “Thiazole-based nitric oxide donors having aryl substituent(s) and uses thereof” (priority 2004, dated 2012)
“Also recorded” adds a separate entry of the source.

How the values were obtained:
[1] = system: cyclic-GMP in isolated aorta of rats; assay: Induction of in vivo nitrate tolerance (cGMP in isolated aorta of rats pre-treated in vivo); set-up: species or system rat; details: rats pre-treated in vivo with the same compound
Method: For c-GMP levels and tolerance development, the rat's thoracic aorta was isolated after exposure to the tested compound in vivo, and measured as described above in the in vitro assays.
Male Sprague Dawley rats (220 to 250 grams) were housed under constant temperature and humidity conditions. Light was maintained at a 12/12 light dark cycle. Except for 12 hours before the experiment, when food fasting was initiated, all rats had free access to standard rat pellet diet and tap water. The animals were anesthetized by intraperitoneal injection of ketamine and xylazine combination (50 and 10 milligram per kilogram, respectively). […] The catheters were filled with normal saline solution containing 1000 IU/ml of heparin and plugged with a metal pin. Catheters were externalized to the back of the neck region and secured by a polyester felt disk.
After implantation, the rats were individually housed until they regained their preoperative weight and appeared healthy (3 to 4 days post-operation). At this time point (day 0), an osmotic mini-pump (Alza Corp., Palo Alto, Calif.) delivering constant volume (10 μl/hour) of vehicle or drug was connected to one of the intravenous catheters.
For inducing tolerance to the tested NO-donor according to the present invention, the animals received 200 μg/hour of the tested compound for 16 hours (short-term-induced tolerance). A similar number of animals were processed by the same surgical procedure and received the vehicle alone (10 μl/hour of a solution consisting of 30% ethanol and 30% propylene glycol in sterile distilled water for injection).
At the end of the infusion periods used for the development of tolerance (16 hour), the rats were anesthetized as described above, the two catheters were externalized and the delivering catheters were disconnected from the mini-pump. The abdomen was opened by midline incision and the thoracic aorta were isolated, washed and cleaned from the surrounding tissues. […]

isolated rat aorta [2] = assay: In vitro induction of tolerance to NO releasing compounds (vasorelaxation of pre-exposed aortic rings); format: cell-based; details: rings pre-treated with epinephrine and then with 0.44 mM of the same compound
Method: Aortic rings were prepared as described hereinabove, and were exposed to 0.44 mM GTN (vehicle was water:ethanol:propyleneglycol at proportional ratio of 1:1:1) for 1 hour before CCRC construction, to thereby induce tolerance to nitroglycerine. At the end of the tolerance induction period, rings were thrice washed with the path buffer (Krebs-bicrbonate) every 15 minutes for the following hour and then CCRC for vasorelaxation on GTN-induced tolerance rings were constructed for GTN (pretreated versus untreated rings, FIG. 15), in order to verify the ability to induce and measure GTN tolerance induction in vitro
Attempted induction of tolerance to the NO-donating compounds of the present invention was performed under the same conditions as for GTN. Thus, in an exemplary experiment, rings were exposed to 0.44 mM solution of Pet-3 in the attempt to induce tolerance for Pet-3. CCRC were then measured for the vasorelaxing effect of Pet-3 on a group of rings which were pre-exposed to Pet-3 as to induce tolerance to Pet-3, and for an untreated control group. The above protocol was repeated with Pet-2, Pet-7, Pet-8, Pet-12, Pet-24, Pet-43, Pet-149 and Pet-152.

isolated rat aorta [3] = assay: Cross-tolerance studies on aortic rings (GTN / Pet-12 pre-treatment); format: cell-based
Method: Cross-tolerance studies were conducted using the same technique described above for measuring vasorelaxation of aortic rings from rats. Two groups of aortic rings samples were pre-treated with GTN, then one group was measured for vasorelaxation by GTN and the second group for vasorelaxation by Pet-12, an exemplary NO-donor according to the present invention. For the opposite cross-tolerance studies, two groups of aortic rings samples were pre-treated with Pet-12, then one group was measured for vasorelaxation by GTN and the second group for vasorelaxation by Pet-12.

[4] = system: hypertensive Sprague-Dawley male rats; assay: Hypotensive effects: mean arterial pressure during intravenous bolus doses; format: in vivo, rat; details: rats given phenylephrine
Method: Mean arterial pressure (MAP) was monitored and determined during bolus infusion of Pet-2, Pet-3, Pet-7, Pet-8, Pet-12 and Pet-13. Briefly, polyethylene catheters (PE50) were inserted into the carotid artery and into the jugular vein of anesthetized hypertensive Sprague-Dawley male rats (200-300 grams). A blood pressure recorder was placed within the carotid artery. Phenylephrine (0.1 mg) was then injected and the mean arterial blood pressure (MABP) was monitored continuously until a stable baseline was reached. The hypotensive effects of intravenous (iv) bolus doses (0.1 mg of each tested compound) administered intravenously at the jugular vein in minimal volume of vehicle (0.2 ml per dose) were evaluated. Five minutes were allowed between each dose, during which the maximal decrease in MAP was recorded and a dose-response graph comparing the hypotensive effect of the compounds was constructed.

Cc1nc(-c2cccnc2)sc1CCO[N+](=O)[O-] [Pet-12, 3-[4-Methyl-5-(2-nitrooxy-ethyl)-thiazole-2-yl]-pyridine] was tested, and the “tolerance induction by cyclic-GMP accumulation in aorta of rats pre-treated in vivo” value [1] was “lack of tolerance induction; also recorded: absence of tolerance induction”, the “tolerance induction in vitro (vasorelaxation, pre-treated versus control rings)” value (isolated rat aorta [2]) was “absence of tolerance induction” and the “vasorelaxation in rings made tolerant to GTN (cross-tolerance)” value (isolated rat aorta [3]; aorta pre-treated with GTN) was “has no effect on the vasorelaxation capacity of Pet-12; also recorded: absence of tolerance induction effect”. The “tolerance induction in rings pre-treated with Pet-12 (cross-tolerance)” value (isolated rat aorta [3]; aorta pre-treated with Pet-12, vasorelaxation by Pet-12 and GTN) was “does not evoke tolerance to itself not to GTN; also recorded: absence of tolerance induction effect” and the “activity as hypotensive agents (MAP)” value [4] was “high activity”.
